# Measured values taken from patent US8785503B2, “Biphenyl compound or pharmaceutically acceptable salt thereof, method for preparing novel biphenyl compound or pharmaceutically acceptable salt thereof, and pharmaceutical composition containing same as active ingredient for preventing or treating diabetes complications” (Korea Institute of Oriental Medicine, priority 2010, dated 2014).
# How the values were obtained:
# [1] = test system: AGE formation; assay: Inhibitory effect on AGE formation (BSA with fructose and glucose, fluorescence Ex 350 nm / Em 450 nm); assay type: biochemical, bovine; settings: for Inhibitory effect / IC50: 7 days
# Description: To determine the inhibitory effect of the compound of Chemical Formula 1 according to the present invention on formation of AGE, which are an indicator of diabetic complications and indicator of treatment efficiency assessment, the following experiment was carried out.
# Bovine serum albumin (BSA) was used as a protein and the degree of binding to fructose and glucose was used as an indicator. Aminoguanidine, which is known to have very excellent inhibitory effect on AGE, was used as a positive control.
# Bovine serum albumin (hereinafter, referred to as BSA; Sigma, U.S.A.) was used as a protein source. BSA was added to 50 mM phosphate buffer (pH 7.4) to be a concentration of 10 mg/mL. A mixed solution of 0.2 M fructose and 0.2 M glucose was used as a sugar source. The mixed solution of fructose and glucose was added to the prepared BSA solution. 2.5, 5 and 10 μg/mL of the compound of Chemical Formula 1 obtained from Example 1 were prepared (All compounds were dissolved in DMSO and 15% tween 80 was added thereto. Total amount of DMSO was 0.2%). The compound was added to the mixed solution of BSA and sugars and the mixture was cultured at 37° C. for 7 days.
# At this time, 0.02% sodium azide and anticomycotics were added as an antibacterial agent and antifungal agents. A control was the cultured mixture of BSA and sugars. Blanks for the control and experimental group were those that were prepared but non-cultured. Aminoguanidine was used for a positive control, the indicator for comparing the effectiveness. All cultures were prepared in quadruplicate to avoid error as much as possible.
# After 7 days, the amount of AGE produced from each culture was analyzed and the result was shown. AGE has fluorescence, brown color, and a physicochemical property capable of cross-linking and has ligands which cell membrane receptors can recognize. The amount of AGE having those characteristics was measured by a microplate reader (Excitation: 350 nm, Emission: 450 nm) to analyze the inhibition degree of formation (Vinson, J. A. et al., J. Nutr. Biochem., 7: 659-663, 1996), and the inhibition rate of formation was calculated using the following Equation 1.
# Aminoguanidine was used for the positive control. Aminoguanidine was dissolved in distilled water and 37, 55.6. and 74 μg/mL of aminoguanidine were cultured for 7 days as described above. After 7 days, the amount of AGE produced from culture was measured by a microplate reader (Excitation: 350 nm, Emission: 450 nm).
# [2] = test system: retinal angiogenesis; assay: Oxygen induced retinopathy (OIR) mouse model: FITC-dextran, isolectin-B4 staining, retina Western blot; assay type: in vivo, mice (C58BL/6)
# Description: To determine the inhibitory effect of the compound of Chemical Formula 1 of the present invention on retinal angiogenesis, the following experiment was carried out. Experimental animals were mice born after crossbreeding 7-8-week-old C58BL/6. On 7th day after birth, mice (P7) were placed into an oxygen chamber and 75% of the oxygen concentration was maintained in the chamber for five days (P7-P11). 12-hour cyclic illumination was maintained in the animal room. Temperature was maintained at 24° C. Animals were allowed to access freely to feeds and drinking water. At an ambient atmosphere, the drug was intraperitoneally injected each day for five days (P12-P16). On 17th day after birth, 30 mg/kg of Zoletil (Zoletil 50, Virbac) and 10 mg/kg of Rompun (Bayer Korea) were mixed at a ratio of 3:2 and 10-fold diluted in physiological saline and 50 μL was intraperitoneally injected to anesthetize animals. After laparotomy, 100 μL of 50 mg/mL of FITC-dextran (Sigma, St. Louis, Mo., USA) dissolved in PBS was injected to a heart. When the heart stopped, eyes were removed. Retina was separated from one eye and stored at −70° C. The other eye was fixed using 4% paraformaldehyde for 10 min. After separation of retina, thin fixed retina slide was prepared and observed using a fluorescence microscope (BX51, Olympus, Japan). Retina was fixed in 4% paraformaldehyde for 3 hours, and washed with PBS, and then agitated in PBS containing triton X-100 and 1% bovine serum albumin for 3 hours. Retina was washed again and 1 mg/mL of isolectin-B4 (L2140, Sigma) was diluted in PBS to 1:50 and retina was agitated with isolectin-B4 at 4° C. for overnight. After washing the retina with PBS containing 0.05% Tween 20 for 2 hours, streptavidin-TRITC was diluted to 1:500 and allowed to react with retina at 37° C. for 4 hours. Then, retina was washed with PBS for 30 min and observed using a fluorescence microscope (BX51, Olympus, Japan). Retina stored at −70° C. was homogenized with homogenization buffer (pH 7.6). Protein quantification was carried out by Lowry's principle and SDS-PAGE electrophoresis was carried out for each 30 μg. Migrated proteins in a gel were immobilized onto a nitrocellulose membrane and transferred to the membrane at 100 V, 250 mA for 1.5 hours. Antibodies to be quantified were immunoabsorbed to the adsorbed proteins and color was developed using an enhanced-chemiluminescence (ECL) solution. Protein expression was determined by measuring the density with Scion image analysis program.
# [3] = test system: diabetic retinopathy-induced retina; assay: Diabetic retinopathy-induced (intravitreal BSA-AGE) rat model: FITC-dextran retinal vessels, retina Western blot; assay type: in vivo, Sprague Dawley (SD) white rats
# Description: To determine the therapeutic effect of the compound of the present invention on retina, to which diabetic retinopathy, one example of diabetic complications, was induced, the following experiment was carried out. Sprague Dawley (SD) white rats (6 weeks) were obtained from Daehan Biolink Co. and acclimated for 7 days to the animal room. SD rats were divided into normal group, diabetic group, experimental group, and control group. The animal room was maintained under the following conditions: temperature 23° C.; humidity 40-60%; and 12 h light-dark cycle. Feeds for experimental animals and drinking water were provided without limitation. All experiments were carried out in accordance with Standard Operation Procedures (SOP) by Institutional Animal Care and Use Committee (IACUC). SD rats were anesthetized by an intraperitoneal injection of 5 mg/mL of Zoletil and 5 mg/mL of Rompun. 20 mg/mL of BSA-AGE alone for normal group and diabetic group and both 20 mg/mL of BSA-AGE and a drug for experimental group and control group were injected via Hamilton syringes and needles to eyes. At this time, the needle was introduced into the sclera, 3 mm away from the corneal limbus, and after confirming that the end of the needle was located in the vitreous cavity, administration was carried out. After 24 hours, eyes were removed. The compound of Chemical Formula 1 obtained from Example 1 was used for the drug. A mixture of the same amount of Zoletil and Rompun was intraperitoneally injected to anesthetize animals. Hearts were obtained by opening abdominal cavity and thoracic cavity. 1 mL of fluorescent isothiocyanate dextran (FITC-dextran, Sigma, St. Louis, Mo., USA) which was prepared by dissolving […] of FITC-dextran in 1 mL of sterile physiological saline was injected into the left ventricle. After 10 minutes, eyes were removed and separated from eyecups. Left eyes were incised in four directions and placed onto a slide glass. After mounting, left eyes were observed by a fluorescent microscope. For right eyes, only retina was separated from the eye and rapidly frozen in liquid nitrogen and stored at −70° C. To prepare BSA-AGE, 30 mM glucose (Sigma, St. Louis, Mo., USA) and 20 mg/mL of BSA (Roche, Germany) were added to sodium phosphate buffer (100 mM, pH 7.4) and cultured at 37° C. for 50 days. After 50 days, BSA-AGE was injected into PD-10 column and the remaining glucose was removed by dialysis and only pure BSA-AGE was obtained. Purified BSA-AGE was aliquoted and stored at −70° C. to use. Retina stored at −70° C. was homogenized with homogenization buffer (pH 7.6). Protein quantification was carried out by Lowry's principle and SDS-PAGE electrophoresis was carried out for each […]. Migrated proteins in a gel were immobilized onto a nitrocellulose membrane and transferred to the membrane at 100 V, 250 mA for 1.5 hours. Antibodies to be quantified were immunoabsorbed to the adsorbed proteins and color was developed using an enhanced-chemiluminescence (ECL) solution. Protein expression was determined by measuring the density with Scion image analysis program.
# [4] = 100 mg/kg, intraperitoneal P12-P16
# [5] = across doses, intraperitoneal P12-P16
# [6] = across doses, vs. diabetic group
compound,measurement,setting,value
"N=C(N)NN [Aminoguanidine, reference compound]",Inhibitory effect,[1]; 37 μg/mL,44.53 ± 2.33%
same,Inhibitory effect,[1]; 55.5 μg/mL,49.97 ± 0.59%
same,Inhibitory effect,[1]; 74 μg/mL,56.37 ± 0.67%
same,IC50,[1],1060 ± 57.2 µM
COc1cc(O)cc(-c2ccc(O)c(O)c2)c1 [Compound of Chemical Formula 1],Inhibitory effect,[1]; 2.5 μg/mL,4.25 ± 5.38%
same,Inhibitory effect,[1]; 5 μg/mL,17.16 ± 5.86%
same,Inhibitory effect,[1]; 10 μg/mL,54.17 ± 6.02%
same,IC50,[1],41 ± 3.78 µM
same,inhibitory effect on AGE formation relative to aminoguanidine,"[1]; ratio of IC50 values, greater than control",26 times
same,angiogenesis (isolectin-B4 staining),[2]; [4],significantly inhibited
same,avascular area (FITC-dextran),[2]; [4],significantly reduced
same,increase in length by vascular tortuosity,[2]; [4],reduced
same,"Changes in the angiogenic growth factor (retina, Western blot)","[2]; 100 mg/kg, p<0.05 vs. OIR",significant decrease
same,neovascular tufts (isolectin-B4 staining),[2]; [5],ameliorated in a dose-dependent manner
same,vascular tortuosity (FITC-dextran),[2]; [5],ameliorated in a dose-dependent manner
same,"Changes in the angiogenic growth factor (retina, Western blot)","[2]; across doses, vs. OIR group",dose-dependent decrease
same,"Changes in occludin (retina, Western blot)","[3]; 100 μM, p<0.05 vs. AGE-BSA",significant increase
same,"Changes in the angiogenic growth factor (retina, Western blot)","[3]; 100 μM, p<0.05 vs. AGE-BSA",significant decrease
same,"Changes in occludin (retina, Western blot)","[3]; 150 μM, p<0.05 vs. AGE-BSA",significant increase
same,"Changes in the angiogenic growth factor (retina, Western blot)","[3]; 150 μM, p<0.05 vs. AGE-BSA",significant decrease
same,"Changes in occludin (retina, Western blot)",[3]; [6],dose-dependent increase
same,"Changes in the angiogenic growth factor (retina, Western blot)",[3]; [6],dose-dependent decrease
